According to patent US6075009A, “Neuropeptide Y analogues, compositions and methods of lowering blood pressure” (East Carolina University, priority 1995, dated 2000):
Square brackets hold non-standard residues; d marks the D form. Ends that are not written are not given here.

System: mean arterial pressure and heart rate
Test: In vivo blood pressure and heart rate after intravenous dosing in normotensive rats
Set-up: species or system Sprague-Dawley rats
Method: Male Sprague-Dawley rats obtained from Charles River Laboratories, Wilmington, Mass., and weighing 276-300 g, were group housed at 22° C. and kept on 12 hour light/dark cycle. Food and water were provided ad lib. Animals were anesthetized with sodium pentobarbital (65 mg/kg) and under sterile conditions a one-inch incision was made in the fold of the left leg to expose the femoral blood vessels. Two lengths of PE-50 tubing filled with 10% heparin were inserted into the left femoral artery and left femoral vein for measurement of blood pressure and for drug delivery, respectively. The tubings were tunneled under the skin and exposed through the mid-scapular region. Animals were allowed at least 24 hours recovery prior to experiments. A force transducer (Spectramed Model P23XL, Grass Instruments, Quincy, Mass., USA), and tachograph (Model 7P44D, Grass Instruments) was used for recording of systolic and diastolic pressures and heart rate from the femoral artery catheter. Patency of catheters was verified by flushing with either saline or 10% heparin. A dose of either 30, 100, 500, 800 or 1000 nM/kg ([…]) of NPY27-36 (D-Tyr^27,36, D-Thr^32) (prepared as described in Example 1 above), or saline was delivered to the animal via the catheter in the left femoral vein. Changes in systolic and diastolic pressures and heart rater were recorded from the catheter in the left femoral artery over a 10 minute time interval.

[1] = i.v., 30-1000 nM/kg, normotensive Sprague-Dawley rats, recorded over 10 min

## D-Tyr-Ile-Asn-Leu-Ile-D-Thr-Arg-Gln-Arg-D-Tyr-NH2 ([dY]INLI[dT]RQR[dY]-NH2; N-terminus assumed; SMILES CC[C@H](C)[C@H](NC(=O)[C@H](N)Cc1ccc(O)cc1)C(=O)N[C@@H](CC(N)=O)C(=O)N[C@@H](CC(C)C)C(=O)N[C@H](C(=O)N[C@@H](C(=O)N[C@@H](CCCNC(=N)N)C(=O)N[C@@H](CCC(N)=O)C(=O)N[C@@H](CCCNC(=N)N)C(=O)N[C@H](Cc1ccc(O)cc1)C(N)=O)[C@H](C)O)[C@@H](C)CC) [NPY27-36 (D-Tyr^27,36, D-Thr^32)]
i.v. doses of 30 and 100 nM/kg
  changes in pressure and heart rate vs saline treatment: failed to produce changes that were significantly different from saline treatment
i.v. doses of 500, 800 and 1000 nM/kg
  mean arterial pressure vs saline-treated controls: significantly different decreases in mean arterial pressure
i.v. doses of 500 and 1000 nM/kg
  heart rate vs saline controls: significantly different increases in heart rate
[1]
  heart rate, dose-response: increase in heart rate
  mean arterial pressure, dose-response: dose-dependent decrease in mean arterial pressure
